From paper PMC9635925, “Biological screening of a unique drug library targeting MRGPRX2” (Frontiers in Immunology, 2022)
Residue numbers refer to the chain shown, from its start. Where a name gives a salt, the structure may show the parent alone.

Key:
[1] = target: T1, MRGPRX2-MUT (MRGPRX2 N62S mutation) (Homo sapiens, UniProt Q96LB1, N62S); assay: Primary HTS, Ca2+ mobilization (fluorescence ratio, B-score) in HEK293-Gα15 cells stably expressing the MRGPRX2 N62S mutation; type: cell-based; conditions: for B-scores (MUT): 10 μM compound, MRGPRX2-MUT (N62S) cells; for Change of B-scores (%): 10 μM
T1 construct: expressed in transfected cells
T1 sequence (Q96LB1 1-330 N62S): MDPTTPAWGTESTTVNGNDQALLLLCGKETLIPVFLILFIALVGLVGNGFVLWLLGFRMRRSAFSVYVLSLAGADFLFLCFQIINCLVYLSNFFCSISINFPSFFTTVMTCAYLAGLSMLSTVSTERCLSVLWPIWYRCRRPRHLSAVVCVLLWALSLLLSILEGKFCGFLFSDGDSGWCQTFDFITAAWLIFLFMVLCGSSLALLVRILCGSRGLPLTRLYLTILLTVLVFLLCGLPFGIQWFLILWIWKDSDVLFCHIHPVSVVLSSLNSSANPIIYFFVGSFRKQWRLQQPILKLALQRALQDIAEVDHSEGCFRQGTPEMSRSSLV
Method: (§1) We performed an experimental HTS on the Johns Hopkins Drug Library, which includes 1,811 (57%) FDA-approved drugs among 3,456 total compounds (28% of all known drugs worldwide) ([15]). We performed the HTS at the Johns Hopkins University ChemBioCORE Facility and employed HEK293-Gα15 cell lines that stably expressed MRGPRX2 protein.
(§2) We utilized 10 μM compounds (each compound was tested in triplicate) and calculated the compound effect using the signal-to-background fluorescence ratio (see Supplementary Methods).
(§3) In the HTS, we determined MRGPRX2 activation by a Ca^2+ mobilization assay that recorded a fluorescence change by utilizing a Functional Drug Screening System (FDSS 6000; Hamamatsu); we evaluated the compound effect using the calculated fluorescence ratio. We further applied the B-score normalization, which provided robust corrections for variation in fluorescence ratio ([22]).
(§4) We performed an experimental high-throughput screening (HTS) on the Johns Hopkins Drug Library (JHDL), which includes 1,811 (57%) FDA-approved drugs among 3,456 total compounds (28% of all known drugs worldwide). The remaining compounds in JHDL are catalogued in one or more of the resources below: British Approved Names (BAN); Dénominations Communes Françaises (DCF); International Nonproprietary Names (INN); Japanese Adopted Names (JAN); MI (Merck Index); National Formulary drug name (NF); and United States Accepted Names (USAN). The JHU drug library is stocked in 96 well plates at 10 mM in 100% DMSO and stored at -80 °C. We used a final concentration of 10 uM for each compound and DMSO concentration of 0.1% (tested in triplicate). […] We evaluated compound effect using the calculated fluorescence ratio. We further calculated B-scores, which are a relative potency score similar to Z scores in that they are the ratio of an adjusted raw value in the numerator to a measure of variability in the denominator.

[2] = target: T2, MRGPRX2-WT (wild-type MRGPRX2 receptor) (Homo sapiens, UniProt Q96LB1); assay: Primary HTS, Ca2+ mobilization (fluorescence ratio, B-score) in HEK293-Gα15 cells stably expressing wild-type MRGPRX2; type: cell-based; conditions: 10 μM compound
T2 construct: expressed in transfected cells
T2 sequence (Q96LB1 1-330): T1 sequence (Q96LB1 1-330 N62S) with S62N
Method: as §1, §2, §3, §4

[3] = MRGPRX2-MUT in comparison to MRGPRX2-WT cells, Supplementary Table 1
[4] = MRGPRX2-MUT in comparison to MRGPRX2-WT cells, Table 1
[5] = MRGPRX2-MUT versus MRGPRX2-WT cells, Supplementary Table 2
[6] = Supplementary Table 2, listed as Isoprenaline

SMILES	B-scores (MUT) ([1]; Supplementary Table 1)	B-scores (MUT) ([1]; Table 1)	Change of B-scores (%) [1, 3] [%]	Change of B-scores (%) [1, 4] [%]	B-scores (WT) ([2]; Supplementary Table 1)	B-scores (WT) ([2]; Table 1)	B-scores (MUT) ([1]; Supplementary Table 2)	Change of B-scores (%) [1, 5] [%]	B-scores (WT) ([2]; Supplementary Table 2)	also measured
CNCCC(Oc1ccc(C(F)(F)F)cc1)c1ccccc1 (stereo not shown) [Fluoxetine]	7.14	7.14	-80.32	-80.32	36.30	36.30				
COc1ccc2c3c1O[C@H]1C[C@@H](O)C=C[C@@]31CCN(C)C2 [Galantamine Hydrobromide]	1.33		-93.34		19.90					
COc1ccc2c3c1O[C@H]1C[C@@H](O)C=C[C@@]31CCN(C)C2 [Galantamine]	1.25		-96.90		40.50					
COc1ccc(CCN(C)CCCC(C#N)(c2cc(OC)c(OC)c(OC)c2)C(C)C)cc1OC (stereo not shown) [Gallopamil]							0.2	-97.19	7.16	
CN1[C@@H]2CC(OC(=O)[C@H](CO)c3ccccc3)C[C@H]1[C@@H]1O[C@@H]12.Cl (stereo partly shown) [Hyoscine hydrochloride]							0.57	-94.9	11.2	
CN1[C@@H]2CC[C@H]1CC(OC(=O)[C@H](CO)c1ccccc1)C2.Cl (stereo partly shown) [Hyoscyamine Hydrochloride]							0.69	-94.01	11.54	
CN1[C@@H]2CC[C@H]1C[C@@H](OC(=O)[C@H](CO)c1ccccc1)C2 [Hyoscyamine]							0.65	-96.31	17.72	
CC(=O)[C@]1(O)Cc2c(O)c3c(c(O)c2[C@@H](O[C@H]2C[C@H](N)[C@H](O)[C@H](C)O2)C1)C(=O)c1ccccc1C3=O [Idarubicin hydrochloride]							39.57	241.86	11.57	
CN(C)CCCN1c2ccccc2CCc2ccccc21 [Imipramine Hydrochloride]	16.90	16.90	-47.47	-47.47	32.17	32.17	16.9	-47.47	32.17	
CC(C)CCCC(C)NC(C)C (stereo not shown) [Iproheptine]	10.27		-61.42		26.61					
CCC(NC(C)C)C(O)c1ccc(O)c(O)c1 (stereo not shown) [Isoetharine Mesylate]	0.60		-97.97		29.54					
CC(C)NCC(O)c1ccc(O)c(O)c1 (stereo not shown) [Isoproterenol Hydrochloride]			-100.26		20.95		-0.05	-100.26	20.95	Change of B-scores (%) ([1]; MRGPRX2-MUT in comparison to MRGPRX2-WT cells, Supplementary Table 1, listed as Isoprenaline hydrochloride): -100.25%; B-scores (WT) ([2]; Supplementary Table 1, listed as Isoprenaline hydrochloride): 21.82
CC(C)NCC(O)c1ccc(O)c(O)c1 (stereo not shown) [Isoproterenol]	6.75		-64.69		19.12					B-scores (MUT) [1, 6]: 6.75; Change of B-scores (%) ([1]; MRGPRX2-MUT versus MRGPRX2-WT cells, Supplementary Table 2, listed as Isoprenaline): -64.69%; B-scores (WT) [2, 6]: 19.12
CN1CCC(=C2c3ccccc3CC(=O)c3sccc32)CC1 [Ketotifen Fumarate]	0.81	0.81	-96.52	-96.52	23.14	23.14				
CN1CCC(=C2c3ccccc3CC(=O)c3sccc32)CC1 [Ketotifen]	1.38	1.38	-93.13	-93.13	20.12	20.12				
CC(C)(C)NC[C@H](O)c1ccc(O)c(CO)c1 [Levalbuterol]							1.63	-86.62	12.18	
C[C@H]1COc2c(N3CCN(C)CC3)c(F)cc3c(=O)c(C(=O)O)cn1c23 [Levofloxacin]	0.74	-0.74	-101.85	-101.85	39.73	39.73				
CCOC(=O)N1CCC(=C2c3ccc(Cl)cc3CCc3cccnc32)CC1 [Loratadine]		-3.30	-115.04	-115.04	21.95	21.95				
Cc1ccc(NC(=O)c2ccc(CN3CCN(C)CC3)cc2)cc1Nc1nc(-c2cccnc2)cs1 [Masitinib]	3.82	3.82	-86.20	-86.20	27.71	27.71	3.82	-86.2	27.71	
CN1CCc2c(c3ccccc3n2Cc2ccccc2)C1.CN1CCc2c(c3ccccc3n2Cc2ccccc2)C1.O=S(=O)(O)c1cccc2c(S(=O)(=O)O)cccc12 [Mebhydrolin Naphthalenesulfonate]	1.93	1.93	-92.39	-92.39	25.34	25.34				
CC12CC3CC(C)(C1)CC(N)(C3)C2 [Memantine Hydrochloride]			-99.82		26.34					
CC(C)NCC(O)c1cc(O)cc(O)c1 (stereo not shown) [Metaproterenol]	2.41		-88.28		20.54		2.41	-88.28	20.54	
CC(=O)OC(C)C[N+](C)(C)C (stereo not shown) [Methacholine Chloride]	37.31		43.29		26.04					
CC(=O)Oc1cc(C(C)C)c(OCCN(C)C)cc1C [Moxisylyte Hydrochloride]	1.32		-94.42		23.69					
NC[C@H](O)c1ccc(O)c(O)c1 [Norepinephrine]	7.54		-73.85		28.83					
CCn1cc(C(=O)O)c(=O)c2cc(F)c(N3CCNCC3)cc21 [Norfloxacin]		0.05	-99.81	-99.81	28.07	28.07	0.05	-99.81	28.07	
CNCCC=C1c2ccccc2CCc2ccccc21 [Nortriptyline Hydrochloride]							2.78	-82.96	16.29	
NCCC(O)(P(=O)([O-])O)P(=O)([O-])O.[Na+].[Na+] [Pamidronate disodium]	18.72		-37.79		30.08					
